The values that follow come from US10035778B2, “Meta-azacyclic amino benzoic acid derivatives as pan integrin antagonists” (Saint Louis University, priority 2015, dated 2018).

Assay type in all cases: in vivo
The nature of series [1]: IV cassette pharmacokinetic study in male Sprague-Dawley rats (Saint Louis University). To be noted: plasma; male Sprague-Dawley rat, 1 mg/kg IV cassette, sampling to 24 h; read-out: plasma t½ after 1 mg/kg IV bolus dose in rat (converted). How it is done: (§1) A minimally sufficient volume of dimethylsulfoxide (DMSO) was added to each test compound to achieve solubilization. For intravenous (IV) delivery, compounds were then formulated as solutions in glycerol formal: saline (either 20:80 or 40:60 v/v) (Sigma Chemicals, St. Louis). For oral (PO) administration, compounds were formulated with 0.5% methylcellulose. Five to six compound solutions were combined into a singled mixed solution for IV and PO cassette administration with final DMSO concentrations <0.6% or <1.2%, for the IV and PO cassettes, respectively. Analytes were detected in test samples using an LC/MS/MS (liquid chromatography/mass spectrometry) system consisting of an LC-20AD pump (Shimadzu, Kyoto, Japan), an HTC PAL autosampler (Leap technologies, Carrboro, N.C.), and a Sciex API-4000 mass spectrometer in ESI mode (AB Sciex, Foster City, Calif.). An Amour C18 reverse phase column (Analytical Sales and Services, Pompton Plains, N.J.) was used for chromatographic separation.
(§2) Pharmacokinetic (PK) studies conducted at Saint Louis University used male Sprague-Dawley rats with an initial body weight of 200 to 220 g. IV PK studies were performed with the following compounds: Examples 1-3 and 5-17 and comparison compounds C12-C18, C29, and C30. Animals were allowed free access to food and water. Rats were individually housed and connected to jugular vein catheters. Each cassette formulation was administered intravenously to two rats (1 mL/kg body weight). Each cassette formulation contained 5-6 compounds at 1 mg/kg in either 20:80 or 40/60 glycerol formal/saline (v/v). Blood was collected manually via the catheter into lithium-heparin tubes at 0.017, 0.083, 0.5, 1, 2, 4, 6 and 24 hours post-dose. Animals were euthanized with CO2 at the end of the experiment.
(§3) Internal standard was added to all samples at 200 ng/mL (final), as well as 150 μL of acetonitrile. Plasma samples (50 μL total volume) were diluted with control nave rat plasma as appropriate to bring the sample measurement into the linear dynamic range of the standard curve. The samples were capped and mixed on a multi-plate vortexer for 5 minutes and centrifuged for 5 minutes at 3200 rmp. The supernant was transferred to 96-well sample plate and capped for LC/MS/MS analysis. Compounds were optimized and monitored for their respective MRM transitions. The mobile phases consisted of 0.1% formic acid (aqueous) and 100% acetonitrile (organic) with an Amour C18 reverse phase column (2.1×30 mm, 5 micron) at a flow rate of 0.35 mL/min. The starting phase was 10% acetonitrile for the 0.9 minutes then increased to 90% acetonitrile over 0.4 minutes, and was maintained for an additional 0.2 minutes before returning to 10% acetonitrile over 0.4 minutes. The 10% acetonitrile was held for an additional 1.6 minutes. Peak areas were integrated using Analyst 1.5.1 (AB Sciex, Foster City, Calif.).

A short description of series [2]: Oral (PO) cassette pharmacokinetic study in male Sprague-Dawley rats. To be noted: plasma; male Sprague-Dawley rat, 2 mg/kg oral gavage cassette in 0.5% methylcellulose; read-out: AUC (0-inf) after a 2 mg/kg PO dose in rat. How it is done:
as §1, §2
Oral PK studies were conducted with the following compounds: Examples 1-3 and 5-17 and comparison compounds C12, C14-16 and C29-30. The PO cassette formulations were administered via oral gavage to two rats (10 mL/kg body weight) containing 5-6 compounds per cassette. The oral dose was administered at 2 mg/kg/compound in 0.5% methylcellulose. Blood collection time points were 0.25, 0.5, 1, 2, 4, 6 and 24 hours post-dose into lithium-heparin tubes. Animals were euthanized with CO2 at the end of the experiment.
as §3

Series [3] can be described thus: IV cassette pharmacokinetic study in female Sprague-Dawley rats (PRESCOS, LLC). To be noted: plasma; female Sprague-Dawley rat, 1 mg/kg IV cassette, sampling to 8 h (PRESCOS); read-out: plasma t½ after 1 mg/kg iv bolus dose in rat (converted). The protocol: Similar rat PK studies were conducted by PRESCOS, LLC (San Diego, Calif.) for comparison compounds C19-C28. Female Sprague-Dawley rats with an initial body weight of 195 to 220 g were used. Cassette formulations with 1 mg/kg/compound in 40/60 glycerol formal/saline were administered intravenously to three rats. The dosing volume for each animal was 5 mL/kg body weight. Blood samples were collected via a jugular vein catheter at 0.017, 0.25, 0.5, 1, 2, 4 and 8 hours post-dose into K2EDTA tubes. Animals were euthanized with CO2 at the end of the experiment. Sample processing and compound measurement by LC/MS/MS was performed by HT Laboratories (San Diego, Calif.).

For the compound `CC(C)(C)c1cc(Br)cc([C@H](CC(=O)O)NC(=O)CNC(=O)c2cc(O)cc(NC3=NCC(O)CN3)c2)c1` (stereo partly shown) [Example C12, reference compound], the half-life in series [1] was 30 min. Further, the AUC(0-inf) in series [2] amounted to 205 ng·h/mL.
For `CC(C)(C)c1cc(Br)c(O)c([C@H](CC(=O)O)NC(=O)CNC(=O)c2cc(O)cc(NC3=NCC(O)CN3)c2)c1` (stereo partly shown) [Example C13, reference compound], the half-life in series [1] was 66 min.
`CC(C)(C)c1cc(Br)cc([C@H](CC(=O)O)NC(=O)CNC(=O)c2cc(O)cc(NC3=NCC(O)CN3)c2)c1O` (stereo partly shown) [Example C14, reference compound]: the half-life in series [1] was 60 min. The AUC(0-inf) in series [2] is 224 ng·h/mL.
In the same order, the values of `CC(C)(O)c1cc(Br)cc([C@H](CC(=O)O)NC(=O)CNC(=O)c2cc(O)cc(NC3=NCC(O)CN3)c2)c1` (stereo partly shown) [Example C15, reference compound] are 36 min and 87 ng·h/mL.
For the compound `CC(C)(O)c1cc(Cl)cc([C@H](CC(=O)O)NC(=O)CNC(=O)c2cc(O)cc(NC3=NCC(O)CN3)c2)c1` (stereo partly shown) [Example C16, reference compound], in series [1], the half-life was 96 min. In addition, the AUC(0-inf) in series [2] was 62 ng·h/mL.
With `CC(C)(C)c1cc(Br)cc([C@H](CC(=O)O)NC(=O)CNC(=O)c2cccc(NC(=N)N)c2)c1` [Example C17, reference compound], the half-life in series [1] is 48 min.
On to `CC(C)(C)c1cc(Br)cc([C@H](CC(=O)O)NC(=O)CNC(=O)c2cccc(NC3=NCCN3)c2)c1` [Example C18, reference compound], for which the half-life in series [1] was 72 min.
On to `CC(C)(C#N)c1cc(Br)cc([C@H](CC(=O)O)NC(=O)CNC(=O)c2cc(O)cc(NC3=NCC(O)CN3)c2)c1` (stereo partly shown) [Example C19], for which the half-life in series [3] was 25.8 min.
On to `CC(C)(C)c1cc(C#N)cc([C@H](CC(=O)O)NC(=O)CNC(=O)c2cc(O)cc(NC3=NCC(O)CN3)c2)c1` (stereo partly shown) [Example C20], for which the half-life in series [3] is 22.8 min.
As for `CC(C)(O)c1cc([C@H](CC(=O)O)NC(=O)CNC(=O)c2cc(O)cc(NC3=NCC(O)CN3)c2)cc(C(F)(F)F)c1` (stereo partly shown) [Example C21], in series [3], the half-life was 90 min.
With `O=C(O)C[C@H](NC(=O)CNC(=O)c1cc(O)cc(NC2=NCC(O)CN2)c1)c1cc(Cl)cc(C2(CF)CCOCC2)c1` (stereo partly shown) [Example C22], the half-life in series [3] is 18 min.
Regarding `CC(C)(c1cc(Cl)cc([C@H](CC(=O)O)NC(=O)CNC(=O)c2cc(O)cc(NC3=NCC(O)CN3)c2)c1)C(F)(F)F` (stereo partly shown) [Example C23], the half-life in series [3] is 12.6 min.
The same measure, in the same setting: the result for `CC(O)(c1cc(Cl)cc([C@H](CC(=O)O)NC(=O)CNC(=O)c2cc(O)cc(NC3=NCC(O)CN3)c2)c1)C(F)(F)F` (stereo partly shown) [Example C24] reads 16.8 min.
Regarding `N#CC1(c2cc(Cl)cc([C@H](CC(=O)O)NC(=O)CNC(=O)c3cc(O)cc(NC4=NCC(O)CN4)c3)c2)CCC1` (stereo partly shown) [Example C25], in series [3], the half-life is 13.8 min.
In the case of `N#CC1(c2cc(Cl)cc([C@H](CC(=O)O)NC(=O)CNC(=O)c3cc(O)cc(NC4=NCC(O)CN4)c3)c2)CCOCC1` (stereo partly shown) [Example C26], the half-life in series [3] is 15 min.
On to `CC(O)(c1cc([C@H](CC(=O)O)NC(=O)CNC(=O)c2cc(O)cc(NC3=NCC(O)CN3)c2)cc(C(F)(F)F)c1)C(F)(F)F` (stereo partly shown) [Example C27], for which the half-life in series [3] is 12.6 min.
Turning to `O=C(O)C[C@H](NC(=O)CNC(=O)c1cc(O)cc(NC2=NCC(O)CN2)c1)c1cc(Br)cc(C2(C(F)F)CC2)c1` (stereo partly shown) [Example C28], the half-life in series [3] was 18 min.
`O=C(O)C[C@H](NC(=O)CNC(=O)c1cc(O)cc(NC2=NCC(O)CN2)c1)c1ccccc1` (stereo partly shown) [Example C29, reference compound]: the half-life in series [1] was below 4.8 min. Moreover, in series [2], the AUC(0-inf) is below 1 ng·h/mL.
In the same order, the values of `NC(=O)c1cc(Cl)cc([C@H](CC(=O)O)NC(=O)CNC(=O)c2cc(O)cc(NC3=NCC(O)CN3)c2)c1` (stereo partly shown) [Example C30, reference compound] are 96 min and below 1 ng·h/mL.
